The target of test [1] is T1, G-protein coupled receptor 55 (Homo sapiens, UniProt Q9Y2T6). Kind of test: GPR55 agonists via beta-arrestin recruitment, primary screen, imaging, U2OS cells, beta-arrestin-GFP redistribution (AID 1961). It is filed as functional. (Recruitment of arrestin is a read-out of receptor activation apart from second messengers.)
Test [2] concerns the target T2, Cannabinoid receptor 2 (Homo sapiens, UniProt P34972). Kind of test: SAR analysis of antagonists of the Cannabinoid Receptor 2 using an Image-Based Assay - Set 2. [Related pubchem assays (depositor defined):AID1961, AID1965]. In kind it is functional.
Test [3] deals with T2, Cannabinoid receptor 2. Kind of test: SAR analysis of agonists of the Cannabinoid Receptor 2 using an Image-Based Assay - Set 2. [Related pubchem assays (depositor defined):AID1961, AID1965]. It is filed as functional.
Test [4] concerns the target T1, G-protein coupled receptor 55. Kind of test: SAR analysis of selective Agonists of GPR55 using an Image-Based Assay. [Related pubchem assays (depositor defined):AID1961, AID1965]. In kind it is functional.
Test [5] deals with T3, Cannabinoid receptor 1 (Homo sapiens, UniProt P21554). Kind of test: SAR analysis of antagonists of the Cannabinoid Receptor 1 using an Image-Based Assay. [Related pubchem assays (depositor defined):AID1961, AID1965]. In kind it is functional.
T3 sequence (P21554 whole entry): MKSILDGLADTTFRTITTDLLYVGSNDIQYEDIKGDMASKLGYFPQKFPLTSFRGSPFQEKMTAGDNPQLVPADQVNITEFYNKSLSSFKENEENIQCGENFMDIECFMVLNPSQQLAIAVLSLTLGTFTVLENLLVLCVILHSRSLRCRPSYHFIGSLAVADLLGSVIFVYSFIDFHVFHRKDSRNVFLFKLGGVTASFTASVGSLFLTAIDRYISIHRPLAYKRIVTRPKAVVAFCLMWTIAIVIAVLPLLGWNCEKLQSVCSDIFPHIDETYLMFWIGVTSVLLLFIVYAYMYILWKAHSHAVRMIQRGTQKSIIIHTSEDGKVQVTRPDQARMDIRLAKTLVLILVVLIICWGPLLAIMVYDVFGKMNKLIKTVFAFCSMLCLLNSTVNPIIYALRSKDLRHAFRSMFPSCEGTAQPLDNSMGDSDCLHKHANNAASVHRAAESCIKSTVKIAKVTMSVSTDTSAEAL
Test [6] addresses T4, E3 ubiquitin-protein ligase XIAP (Homo sapiens, UniProt P98170). Kind of test: Counter Screen using XIAP-Bir3 for Chemical Antagonists of Bir1/2 domains of IAP-family anti-apoptotic proteins. [Related pubchem assays (depositor defined):AID1018, AID1449, AID1514, AID1638, AID1749, AID1750, AID488957, AID488963]. Background: Counterscreens check selectivity or assay interference.

Test [7] concerns the target T4, E3 ubiquitin-protein ligase XIAP. Kind of test: XIAP antagonists, biochemical, IAP family, fluorescence polarization (AID 1018). It is filed as functional.
Test [8] addresses T5, G-protein coupled receptor 35 (Homo sapiens, UniProt Q9HC97). Kind of test: SAR analysis of Agonists of the GPR35 Receptor using an Image-Based Assay - Set 4. [Related pubchem assays (depositor defined):AID2013, AID2026]. It is filed as functional.
The target of test [9] is T3, Cannabinoid receptor 1. Kind of test: SAR analysis of agonists of the Cannabinoid Receptor 1 using an Image-Based Assay - Set 4. [Related pubchem assays (depositor defined):AID2013, AID2026]. In kind it is functional.
The target of test [10] is T5, G-protein coupled receptor 35. Kind of test: SAR analysis of Antagonists of the GPR35 Receptor using an Image-Based Assay - Set 6. [Related pubchem assays (depositor defined):AID2013, AID2026]. It is filed as functional.
For test [11], the target named is T3, Cannabinoid receptor 1. Kind of test: SAR analysis of antagonists of the Cannabinoid Receptor 1 using an Image-Based Assay - Set 4. [Related pubchem assays (depositor defined):AID2013, AID2026]. It is filed as functional.
Test [12] addresses T1, G-protein coupled receptor 55. Kind of test: SAR Analysis of Selective Antagonists of GPR55 using an Image-Based Assay - Set 4. [Related pubchem assays (depositor defined):AID2013, AID2026]. It is filed as functional.
In test [13] the target is T2, Cannabinoid receptor 2. Kind of test: SAR analysis of antagonists of the Cannabinoid Receptor 2 using an Image-Based Assay - Set 3. [Related pubchem assays (depositor defined):AID2013, AID2026]. In kind it is functional.
Test [14] has as its target T2, Cannabinoid receptor 2. Kind of test: SAR analysis of agonists of the Cannabinoid Receptor 2 using an Image-Based Assay - Set 3. [Related pubchem assays (depositor defined):AID2013, AID2026]. In kind it is functional.
A short description of test [15]: enhancers of respiration in Yfh1-depleted yeast, dose response, Friedreich's ataxia, plus single-dose screen (AID 1465).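 Also: yeast depleted of Yfh1p frataxin homolog grown on glycerol needing respiration; WST-1 tetrazolium dye reduction as measure of cellular dehydrogenase metabolic activity.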 In kind it is functional.
Test [16] has as its target Intestinal-type alkaline phosphatase (Homo sapiens, UniProt P09923). Kind of test: activation of human intestinal alkaline phosphatase – biochemical, dose response (AID 488873). It is filed as functional.
Test [17] has as its target Intestinal-type alkaline phosphatase (Mus musculus, UniProt P24822). Kind of test: mouse intestinal alkaline phosphatase activators, dose response, biochemical, luminescence, uHTS hits (AID 488783). In kind it is functional.
For test [18], the target named is T6, Alkaline phosphatase, tissue-nonspecific isozyme (Homo sapiens, UniProt P05186).
T6 sequence (P05186 whole entry): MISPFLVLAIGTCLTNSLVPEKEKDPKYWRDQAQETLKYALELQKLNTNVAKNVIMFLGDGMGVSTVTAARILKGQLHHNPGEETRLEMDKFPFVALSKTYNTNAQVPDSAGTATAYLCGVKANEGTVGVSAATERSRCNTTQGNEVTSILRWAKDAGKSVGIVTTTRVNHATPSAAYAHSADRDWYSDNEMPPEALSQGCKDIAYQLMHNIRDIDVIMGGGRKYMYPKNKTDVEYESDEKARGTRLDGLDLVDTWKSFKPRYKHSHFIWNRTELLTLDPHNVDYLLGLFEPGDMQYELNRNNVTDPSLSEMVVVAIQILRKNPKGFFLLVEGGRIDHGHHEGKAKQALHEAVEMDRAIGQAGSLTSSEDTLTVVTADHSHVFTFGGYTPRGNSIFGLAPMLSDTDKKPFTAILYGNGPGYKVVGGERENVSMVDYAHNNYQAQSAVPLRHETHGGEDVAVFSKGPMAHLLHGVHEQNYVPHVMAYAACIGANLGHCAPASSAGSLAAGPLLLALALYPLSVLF
Kind of test: TNAP enzyme activators, dose response, selectivity assay for mouse IAP activator project, biochemical, TNAP isozyme, mouse IAP uHTS hits (AID 488880). It is filed as functional.

Test [19] addresses 26S proteasome non-ATPase regulatory subunit 14 (Homo sapiens, UniProt O00487). Kind of test: inhibition of proteasome subunit RPN11 – biochemical, fluorescence polarization, uHTS hits, confirmation (AID 602368). It is filed as functional.
The target of test [20] is 72 kDa type IV collagenase (Homo sapiens, UniProt P08253). Kind of test: Dose Response validation of uHTS RPN11 inhibitor hits using a MMP-2 Fluorescence assay. In kind it is functional.
Chain of 72 kDa type IV collagenase (P08253 whole entry): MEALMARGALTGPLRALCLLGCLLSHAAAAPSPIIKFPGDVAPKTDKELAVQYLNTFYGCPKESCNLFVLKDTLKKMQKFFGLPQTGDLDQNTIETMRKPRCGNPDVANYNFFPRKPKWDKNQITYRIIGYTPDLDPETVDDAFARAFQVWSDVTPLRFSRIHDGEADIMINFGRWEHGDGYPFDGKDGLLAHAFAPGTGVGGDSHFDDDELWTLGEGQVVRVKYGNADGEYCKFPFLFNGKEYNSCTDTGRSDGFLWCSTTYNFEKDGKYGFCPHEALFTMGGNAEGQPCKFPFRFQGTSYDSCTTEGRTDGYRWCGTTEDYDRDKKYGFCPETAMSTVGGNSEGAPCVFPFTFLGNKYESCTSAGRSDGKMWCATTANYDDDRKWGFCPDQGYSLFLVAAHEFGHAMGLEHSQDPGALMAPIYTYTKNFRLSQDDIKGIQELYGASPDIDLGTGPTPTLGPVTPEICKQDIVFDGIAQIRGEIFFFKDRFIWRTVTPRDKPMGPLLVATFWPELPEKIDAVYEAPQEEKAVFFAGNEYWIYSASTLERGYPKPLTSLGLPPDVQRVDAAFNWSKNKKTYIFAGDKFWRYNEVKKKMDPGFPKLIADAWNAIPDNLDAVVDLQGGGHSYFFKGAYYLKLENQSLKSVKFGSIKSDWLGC
The target of a further test is Prothrombin (Bos taurus, UniProt P00735). Kind of test: thrombin inhibition, dose response, biochemical, fluorescence polarization, uHTS hits (AID 602369). In kind it is functional. For orientation: Polarisation of emitted light reports the rotation of a fluorescent probe.
In test [21] the target is T7, Rac GTPase-activating protein 1 (Homo sapiens, UniProt Q9H0H5).
T7 sequence (Q9H0H5 whole entry): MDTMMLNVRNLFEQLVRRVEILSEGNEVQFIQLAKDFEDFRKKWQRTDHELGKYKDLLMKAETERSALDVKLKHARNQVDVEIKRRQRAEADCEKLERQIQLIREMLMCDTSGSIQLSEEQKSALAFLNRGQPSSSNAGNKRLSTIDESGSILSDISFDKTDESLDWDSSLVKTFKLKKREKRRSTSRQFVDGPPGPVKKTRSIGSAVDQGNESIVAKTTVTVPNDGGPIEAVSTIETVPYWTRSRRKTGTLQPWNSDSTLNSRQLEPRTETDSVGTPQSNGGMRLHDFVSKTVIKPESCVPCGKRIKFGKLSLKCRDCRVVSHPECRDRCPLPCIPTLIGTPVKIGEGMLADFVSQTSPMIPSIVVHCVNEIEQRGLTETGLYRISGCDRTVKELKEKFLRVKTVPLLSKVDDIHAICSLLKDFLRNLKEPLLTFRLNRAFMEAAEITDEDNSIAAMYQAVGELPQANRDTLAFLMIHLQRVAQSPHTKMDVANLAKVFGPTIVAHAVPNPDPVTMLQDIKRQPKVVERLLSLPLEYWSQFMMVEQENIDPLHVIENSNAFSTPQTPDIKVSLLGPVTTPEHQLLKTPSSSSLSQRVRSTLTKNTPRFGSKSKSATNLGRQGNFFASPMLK
Kind of test: MgcRacGAP GTPase-activating activity inhibitors, confirmation, biochemical, ADP Hunter fluorescence, primary and confirmatory (AID 624330). It is filed as functional.

Usually EC50 stands for the concentration needed to bring the measured effect to its halfway point. A word on the IC50: it is the concentration that inhibits the measured activity by half.

The source made the active and inactive calls. Where only a bound is given, the exact number is not on record here.

T2 sequence (P34972 whole entry): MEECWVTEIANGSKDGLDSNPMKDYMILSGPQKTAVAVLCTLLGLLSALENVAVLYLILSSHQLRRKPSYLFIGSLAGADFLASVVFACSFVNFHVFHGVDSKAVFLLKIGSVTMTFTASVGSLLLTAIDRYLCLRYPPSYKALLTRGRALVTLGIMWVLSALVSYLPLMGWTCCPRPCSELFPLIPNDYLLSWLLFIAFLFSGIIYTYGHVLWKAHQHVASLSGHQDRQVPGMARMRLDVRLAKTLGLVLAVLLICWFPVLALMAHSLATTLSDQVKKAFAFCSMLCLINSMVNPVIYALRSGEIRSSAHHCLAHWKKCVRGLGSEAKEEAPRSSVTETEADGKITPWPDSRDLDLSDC
T1 sequence (Q9Y2T6 whole entry): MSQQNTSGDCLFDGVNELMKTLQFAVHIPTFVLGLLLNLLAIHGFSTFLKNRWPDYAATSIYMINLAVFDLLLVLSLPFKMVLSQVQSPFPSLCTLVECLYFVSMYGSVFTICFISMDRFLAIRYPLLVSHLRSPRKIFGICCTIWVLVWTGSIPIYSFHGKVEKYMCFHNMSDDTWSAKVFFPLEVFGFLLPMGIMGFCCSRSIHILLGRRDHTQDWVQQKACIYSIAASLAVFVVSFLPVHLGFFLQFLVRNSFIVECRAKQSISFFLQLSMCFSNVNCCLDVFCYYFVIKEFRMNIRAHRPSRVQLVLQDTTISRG
T4 sequence (P98170 whole entry): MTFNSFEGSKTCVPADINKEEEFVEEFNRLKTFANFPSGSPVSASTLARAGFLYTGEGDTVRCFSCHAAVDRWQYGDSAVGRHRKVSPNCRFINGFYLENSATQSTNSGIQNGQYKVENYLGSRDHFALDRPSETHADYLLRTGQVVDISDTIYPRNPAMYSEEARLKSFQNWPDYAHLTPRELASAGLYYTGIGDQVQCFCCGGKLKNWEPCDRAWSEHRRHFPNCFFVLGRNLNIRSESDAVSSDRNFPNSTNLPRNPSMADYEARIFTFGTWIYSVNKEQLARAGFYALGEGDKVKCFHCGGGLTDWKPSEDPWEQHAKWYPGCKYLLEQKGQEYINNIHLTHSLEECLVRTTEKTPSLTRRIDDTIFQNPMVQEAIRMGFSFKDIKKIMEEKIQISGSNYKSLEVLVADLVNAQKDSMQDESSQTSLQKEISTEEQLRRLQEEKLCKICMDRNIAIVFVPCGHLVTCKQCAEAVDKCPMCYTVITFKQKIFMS
T5 sequence (Q9HC97 whole entry): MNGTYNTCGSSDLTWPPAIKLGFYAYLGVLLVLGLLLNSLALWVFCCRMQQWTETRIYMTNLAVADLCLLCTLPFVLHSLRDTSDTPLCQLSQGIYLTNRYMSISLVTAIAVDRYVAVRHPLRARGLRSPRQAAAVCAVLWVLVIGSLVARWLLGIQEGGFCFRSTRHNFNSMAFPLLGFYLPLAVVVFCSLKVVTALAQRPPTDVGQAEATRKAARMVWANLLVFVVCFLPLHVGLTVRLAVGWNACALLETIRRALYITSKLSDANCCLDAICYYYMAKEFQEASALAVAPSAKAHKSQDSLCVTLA
Chain of Intestinal-type alkaline phosphatase (Mus musculus, UniProt P24822) (P24822 whole entry): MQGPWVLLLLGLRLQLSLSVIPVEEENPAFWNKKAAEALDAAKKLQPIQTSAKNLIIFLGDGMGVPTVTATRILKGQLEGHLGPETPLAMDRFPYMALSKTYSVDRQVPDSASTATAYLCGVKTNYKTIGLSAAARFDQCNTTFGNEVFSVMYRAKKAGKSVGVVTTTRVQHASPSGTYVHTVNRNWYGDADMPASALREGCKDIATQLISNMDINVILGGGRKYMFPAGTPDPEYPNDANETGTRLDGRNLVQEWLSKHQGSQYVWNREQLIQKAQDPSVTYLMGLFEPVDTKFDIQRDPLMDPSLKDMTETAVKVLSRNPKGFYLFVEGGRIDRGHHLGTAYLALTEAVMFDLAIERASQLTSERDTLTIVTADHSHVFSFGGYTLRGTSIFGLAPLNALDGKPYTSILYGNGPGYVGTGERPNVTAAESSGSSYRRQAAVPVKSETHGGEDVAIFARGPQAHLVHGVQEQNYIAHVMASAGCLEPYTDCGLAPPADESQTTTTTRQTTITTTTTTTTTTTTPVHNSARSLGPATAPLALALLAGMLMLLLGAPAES
Chain of 26S proteasome non-ATPase regulatory subunit 14 (O00487 whole entry): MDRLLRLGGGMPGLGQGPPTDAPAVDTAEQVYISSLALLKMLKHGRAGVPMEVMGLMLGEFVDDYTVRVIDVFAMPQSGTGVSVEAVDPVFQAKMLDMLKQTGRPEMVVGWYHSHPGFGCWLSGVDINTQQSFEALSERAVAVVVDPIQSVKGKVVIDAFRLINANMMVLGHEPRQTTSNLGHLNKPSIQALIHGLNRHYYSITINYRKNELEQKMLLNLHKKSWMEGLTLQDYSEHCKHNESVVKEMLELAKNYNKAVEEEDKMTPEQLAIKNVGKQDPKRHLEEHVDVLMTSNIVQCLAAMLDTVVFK
Chain of Intestinal-type alkaline phosphatase (Homo sapiens, UniProt P09923) (P09923 whole entry): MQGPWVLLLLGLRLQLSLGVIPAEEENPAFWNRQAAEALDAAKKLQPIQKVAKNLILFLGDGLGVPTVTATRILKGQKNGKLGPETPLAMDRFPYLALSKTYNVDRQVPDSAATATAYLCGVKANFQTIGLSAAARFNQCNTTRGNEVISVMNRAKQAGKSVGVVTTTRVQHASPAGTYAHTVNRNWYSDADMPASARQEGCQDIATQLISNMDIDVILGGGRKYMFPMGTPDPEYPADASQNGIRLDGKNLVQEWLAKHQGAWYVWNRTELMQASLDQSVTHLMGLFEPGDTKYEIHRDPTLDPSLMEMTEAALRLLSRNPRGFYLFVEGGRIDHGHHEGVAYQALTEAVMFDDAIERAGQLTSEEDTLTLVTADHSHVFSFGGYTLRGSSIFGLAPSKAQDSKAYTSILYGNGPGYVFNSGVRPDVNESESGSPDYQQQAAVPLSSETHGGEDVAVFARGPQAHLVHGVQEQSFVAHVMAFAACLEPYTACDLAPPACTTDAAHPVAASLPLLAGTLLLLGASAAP

For the compound `O=C(CSc1nc2ccccc2s1)N1c2ccccc2Sc2ccc(Cl)cc21`, the EC50 in test [1] was 0.84 µM (active); at Cannabinoid receptor 2 [3] it was 0.0905 µM (active); in test [4] it was 0.748 µM (active). The IC50 on Cannabinoid receptor 2 [2] and on Cannabinoid receptor 1 [5] was > 32 µM (inactive) in each case.

Consider `CN1/C(=C\C=C2\N=C(c3ccc(F)cc3)OC2=O)C(C)(C)c2ccccc21`, for which the IC50 in [6] is > 12.5 µM (inactive); in test [7], > 100 µM (not active).

For the compound `O=C(Cc1ccc(F)cc1)N1CCC(n2nc(-c3ccccc3)oc2=O)CC1`, the EC50 (in test [8]; on Cannabinoid receptor 1 [9]; on Cannabinoid receptor 2 [14]) was > 32 µM (inactive) throughout. In addition, the IC50 is > 32 µM (inactive) in [10], 11.7 µM (inactive) at Cannabinoid receptor 1 [11], > 32 µM (inactive) in test [12] and > 32 µM (inactive) at Cannabinoid receptor 2 [13].

Regarding `Cc1cc(/C=C2\SC(=S)NC2=O)c(C)[nH]1`, the EC50 in test [15] is > 100 µM (active); in [16], 68 µM (active); in test [17], 56.6 µM (active); in test [18] it was 58.1 µM (active). Moreover, the IC50 in test [19] is 26.5 µM (active); in test [20], 20.4 µM (active); at Prothrombin, 33 µM (active); in [21] it was 207 µM (active).

These data come from ChEMBL document CHEMBL1201862, “PubChem BioAssay data set” (2004).
